Results reported in ChEMBL document CHEMBL5291721, “A preclinical secondary pharmacology resource illuminates target-adverse drug reaction associations of marketed drugs” (Nat Commun, 2023).

Experiments:
[1] = target: T1, Estrogen receptor (Homo sapiens, UniProt P03372)
T1 sequence (P03372 whole entry): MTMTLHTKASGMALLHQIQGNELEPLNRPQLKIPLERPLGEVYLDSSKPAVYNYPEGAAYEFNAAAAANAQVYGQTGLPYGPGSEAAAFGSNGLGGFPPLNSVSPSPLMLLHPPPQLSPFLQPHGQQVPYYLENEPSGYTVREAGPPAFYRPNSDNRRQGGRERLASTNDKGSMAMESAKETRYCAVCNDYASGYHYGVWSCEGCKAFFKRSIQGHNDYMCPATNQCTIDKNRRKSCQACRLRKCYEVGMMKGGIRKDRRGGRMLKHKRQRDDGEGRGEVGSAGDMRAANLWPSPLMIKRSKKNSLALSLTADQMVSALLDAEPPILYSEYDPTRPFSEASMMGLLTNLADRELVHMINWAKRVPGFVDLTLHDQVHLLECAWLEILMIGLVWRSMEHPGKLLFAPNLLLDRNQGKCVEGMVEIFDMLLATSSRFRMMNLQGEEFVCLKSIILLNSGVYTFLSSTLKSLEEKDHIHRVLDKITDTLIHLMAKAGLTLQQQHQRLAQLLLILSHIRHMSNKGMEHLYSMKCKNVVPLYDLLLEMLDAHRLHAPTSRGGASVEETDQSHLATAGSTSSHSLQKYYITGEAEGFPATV

[2] = target: T2, Thromboxane A2 receptor (Homo sapiens, UniProt P21731); type: functional, cell-based
T2 sequence (P21731 whole entry): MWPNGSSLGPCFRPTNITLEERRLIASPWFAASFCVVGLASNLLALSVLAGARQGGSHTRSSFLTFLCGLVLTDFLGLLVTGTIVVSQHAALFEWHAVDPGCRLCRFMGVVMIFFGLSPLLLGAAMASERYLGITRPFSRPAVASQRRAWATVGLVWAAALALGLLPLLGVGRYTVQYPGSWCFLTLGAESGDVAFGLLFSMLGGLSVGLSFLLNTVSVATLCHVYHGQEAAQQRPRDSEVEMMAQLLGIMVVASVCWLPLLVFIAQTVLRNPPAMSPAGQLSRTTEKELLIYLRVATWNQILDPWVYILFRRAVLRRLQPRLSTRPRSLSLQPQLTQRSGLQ

[3] = target: T3, Prostaglandin G/H synthase 1 (Homo sapiens, UniProt P23219); type: functional
T3 sequence (P23219 whole entry): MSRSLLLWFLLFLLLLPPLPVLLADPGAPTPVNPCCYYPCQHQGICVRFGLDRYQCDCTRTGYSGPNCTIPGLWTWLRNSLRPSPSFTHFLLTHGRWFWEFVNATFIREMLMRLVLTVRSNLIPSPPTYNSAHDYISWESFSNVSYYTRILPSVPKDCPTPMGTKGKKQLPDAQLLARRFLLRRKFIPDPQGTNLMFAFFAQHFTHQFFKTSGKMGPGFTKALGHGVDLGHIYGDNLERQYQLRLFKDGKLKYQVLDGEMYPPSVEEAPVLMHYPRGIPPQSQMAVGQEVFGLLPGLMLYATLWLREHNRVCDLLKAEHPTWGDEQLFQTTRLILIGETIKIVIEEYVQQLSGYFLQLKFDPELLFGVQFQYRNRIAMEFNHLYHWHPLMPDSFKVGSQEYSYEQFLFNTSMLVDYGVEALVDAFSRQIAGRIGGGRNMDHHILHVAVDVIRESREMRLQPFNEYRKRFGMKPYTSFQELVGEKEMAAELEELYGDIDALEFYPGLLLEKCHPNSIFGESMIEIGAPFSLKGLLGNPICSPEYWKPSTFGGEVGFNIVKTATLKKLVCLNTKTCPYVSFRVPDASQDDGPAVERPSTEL

[4] = target: 5-hydroxytryptamine receptor 2B (Homo sapiens, UniProt P41595); type: functional, cell-based
5-hydroxytryptamine receptor 2B, sequence (P41595 whole entry): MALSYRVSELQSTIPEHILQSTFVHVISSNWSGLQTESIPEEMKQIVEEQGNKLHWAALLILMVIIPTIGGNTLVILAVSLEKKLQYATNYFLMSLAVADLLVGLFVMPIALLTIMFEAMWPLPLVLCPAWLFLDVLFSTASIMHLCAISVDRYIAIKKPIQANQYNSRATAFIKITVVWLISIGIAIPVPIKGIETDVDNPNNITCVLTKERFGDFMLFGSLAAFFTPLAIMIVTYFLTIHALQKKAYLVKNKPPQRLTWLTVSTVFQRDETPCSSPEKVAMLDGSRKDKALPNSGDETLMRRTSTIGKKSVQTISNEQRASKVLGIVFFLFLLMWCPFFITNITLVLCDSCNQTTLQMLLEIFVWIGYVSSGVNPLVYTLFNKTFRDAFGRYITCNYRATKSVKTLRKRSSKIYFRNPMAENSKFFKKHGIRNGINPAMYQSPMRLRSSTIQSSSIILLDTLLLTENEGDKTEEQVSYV

[5] = target: T2, Thromboxane A2 receptor; type: functional, cell-based; remark: listed apart in the source
[6] = target: T4, Alpha-1A adrenergic receptor (Homo sapiens, UniProt P35348); type: functional, cell-based
T4 sequence (P35348 whole entry): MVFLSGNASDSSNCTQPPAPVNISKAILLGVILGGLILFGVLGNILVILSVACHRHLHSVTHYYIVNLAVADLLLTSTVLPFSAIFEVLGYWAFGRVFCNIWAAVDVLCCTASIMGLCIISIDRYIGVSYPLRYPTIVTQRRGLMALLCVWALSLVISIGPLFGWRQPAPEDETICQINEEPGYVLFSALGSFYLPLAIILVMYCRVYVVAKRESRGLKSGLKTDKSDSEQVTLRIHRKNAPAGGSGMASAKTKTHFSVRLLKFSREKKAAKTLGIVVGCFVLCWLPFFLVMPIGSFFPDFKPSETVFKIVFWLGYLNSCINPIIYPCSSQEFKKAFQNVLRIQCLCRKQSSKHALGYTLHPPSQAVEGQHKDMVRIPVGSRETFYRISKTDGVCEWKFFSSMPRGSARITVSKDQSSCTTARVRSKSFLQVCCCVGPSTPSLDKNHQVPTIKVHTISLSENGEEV

[7] = target: cGMP-inhibited 3',5'-cyclic phosphodiesterase 3A (Homo sapiens, UniProt Q14432); type: functional
cGMP-inhibited 3',5'-cyclic phosphodiesterase 3A, sequence (Q14432 whole entry): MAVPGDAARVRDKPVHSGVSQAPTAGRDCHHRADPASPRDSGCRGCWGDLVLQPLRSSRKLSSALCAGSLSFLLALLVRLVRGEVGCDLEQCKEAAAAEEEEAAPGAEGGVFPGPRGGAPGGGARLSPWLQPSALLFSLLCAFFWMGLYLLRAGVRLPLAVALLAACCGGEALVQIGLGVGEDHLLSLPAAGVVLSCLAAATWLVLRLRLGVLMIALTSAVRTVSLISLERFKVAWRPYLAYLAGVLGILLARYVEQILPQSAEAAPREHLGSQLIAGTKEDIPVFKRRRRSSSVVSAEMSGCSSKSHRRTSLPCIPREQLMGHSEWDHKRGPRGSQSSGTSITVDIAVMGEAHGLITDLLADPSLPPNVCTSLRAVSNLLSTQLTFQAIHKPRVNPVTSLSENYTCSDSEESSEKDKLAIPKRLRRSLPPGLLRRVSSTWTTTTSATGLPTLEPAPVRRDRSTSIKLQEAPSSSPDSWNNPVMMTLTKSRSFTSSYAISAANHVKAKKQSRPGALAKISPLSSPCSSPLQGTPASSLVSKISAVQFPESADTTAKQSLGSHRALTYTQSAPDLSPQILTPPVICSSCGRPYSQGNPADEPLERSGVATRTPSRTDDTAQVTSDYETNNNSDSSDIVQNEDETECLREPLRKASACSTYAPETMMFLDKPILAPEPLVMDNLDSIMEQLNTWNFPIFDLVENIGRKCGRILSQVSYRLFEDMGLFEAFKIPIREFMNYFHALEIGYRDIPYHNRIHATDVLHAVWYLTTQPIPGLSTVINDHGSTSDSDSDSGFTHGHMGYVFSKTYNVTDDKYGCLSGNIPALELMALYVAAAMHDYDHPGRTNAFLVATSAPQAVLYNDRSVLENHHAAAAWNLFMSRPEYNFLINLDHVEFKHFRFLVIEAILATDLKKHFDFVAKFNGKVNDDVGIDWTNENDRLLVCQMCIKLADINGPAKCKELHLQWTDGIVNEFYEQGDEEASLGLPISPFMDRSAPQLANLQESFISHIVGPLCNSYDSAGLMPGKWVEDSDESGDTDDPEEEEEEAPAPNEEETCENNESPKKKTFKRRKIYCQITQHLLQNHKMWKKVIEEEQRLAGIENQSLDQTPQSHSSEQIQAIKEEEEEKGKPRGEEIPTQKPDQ

[8] = target: T5, Progesterone receptor (Homo sapiens, UniProt P06401)
T5 sequence (P06401 whole entry): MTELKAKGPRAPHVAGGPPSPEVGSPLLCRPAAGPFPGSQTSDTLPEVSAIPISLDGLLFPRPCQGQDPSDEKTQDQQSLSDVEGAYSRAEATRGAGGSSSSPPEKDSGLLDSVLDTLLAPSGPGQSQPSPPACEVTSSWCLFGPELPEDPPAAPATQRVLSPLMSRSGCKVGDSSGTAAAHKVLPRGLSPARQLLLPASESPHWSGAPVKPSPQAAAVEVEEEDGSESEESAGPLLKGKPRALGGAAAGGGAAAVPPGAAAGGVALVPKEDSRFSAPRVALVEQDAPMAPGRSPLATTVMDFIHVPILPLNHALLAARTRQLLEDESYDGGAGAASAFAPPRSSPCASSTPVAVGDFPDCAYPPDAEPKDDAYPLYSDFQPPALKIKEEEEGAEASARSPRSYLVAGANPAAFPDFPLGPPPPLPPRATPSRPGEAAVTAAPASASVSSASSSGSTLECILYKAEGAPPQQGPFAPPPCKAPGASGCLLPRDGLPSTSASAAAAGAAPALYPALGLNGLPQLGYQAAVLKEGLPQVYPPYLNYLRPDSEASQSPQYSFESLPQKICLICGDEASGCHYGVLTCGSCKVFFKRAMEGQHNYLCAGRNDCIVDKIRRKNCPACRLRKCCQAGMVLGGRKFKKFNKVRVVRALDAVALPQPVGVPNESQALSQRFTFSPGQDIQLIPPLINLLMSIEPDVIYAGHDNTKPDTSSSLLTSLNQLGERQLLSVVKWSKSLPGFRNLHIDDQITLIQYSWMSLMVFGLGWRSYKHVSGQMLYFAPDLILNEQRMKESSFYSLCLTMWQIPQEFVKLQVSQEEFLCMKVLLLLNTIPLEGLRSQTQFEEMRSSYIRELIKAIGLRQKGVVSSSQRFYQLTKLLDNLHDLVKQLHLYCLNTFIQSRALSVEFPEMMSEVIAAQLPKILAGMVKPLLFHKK

[9] = target: T3, Prostaglandin G/H synthase 1; type: functional; remark: listed apart in the source
[10] = target: Sodium-dependent serotonin transporter (Homo sapiens, UniProt P31645)
Sodium-dependent serotonin transporter, sequence (P31645 whole entry): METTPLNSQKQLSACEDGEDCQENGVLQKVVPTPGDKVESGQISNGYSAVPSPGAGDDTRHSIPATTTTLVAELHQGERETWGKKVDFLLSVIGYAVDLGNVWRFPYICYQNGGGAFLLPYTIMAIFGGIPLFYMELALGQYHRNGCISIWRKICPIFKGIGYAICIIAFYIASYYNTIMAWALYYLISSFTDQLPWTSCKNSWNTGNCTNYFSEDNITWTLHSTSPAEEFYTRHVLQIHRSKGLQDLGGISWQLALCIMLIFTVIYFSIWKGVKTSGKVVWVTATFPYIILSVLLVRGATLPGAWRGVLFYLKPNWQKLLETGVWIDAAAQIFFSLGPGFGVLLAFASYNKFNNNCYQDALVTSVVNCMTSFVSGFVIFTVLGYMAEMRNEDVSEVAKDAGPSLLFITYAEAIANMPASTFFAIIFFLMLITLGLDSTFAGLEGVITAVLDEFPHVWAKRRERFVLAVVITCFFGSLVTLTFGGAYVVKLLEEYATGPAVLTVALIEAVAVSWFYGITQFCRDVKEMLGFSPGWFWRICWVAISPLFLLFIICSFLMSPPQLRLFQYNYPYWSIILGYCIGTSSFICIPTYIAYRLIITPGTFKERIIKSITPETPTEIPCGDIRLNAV

[11] = target: Acetylcholinesterase (Homo sapiens, UniProt P22303); type: functional
Acetylcholinesterase, sequence (P22303 whole entry): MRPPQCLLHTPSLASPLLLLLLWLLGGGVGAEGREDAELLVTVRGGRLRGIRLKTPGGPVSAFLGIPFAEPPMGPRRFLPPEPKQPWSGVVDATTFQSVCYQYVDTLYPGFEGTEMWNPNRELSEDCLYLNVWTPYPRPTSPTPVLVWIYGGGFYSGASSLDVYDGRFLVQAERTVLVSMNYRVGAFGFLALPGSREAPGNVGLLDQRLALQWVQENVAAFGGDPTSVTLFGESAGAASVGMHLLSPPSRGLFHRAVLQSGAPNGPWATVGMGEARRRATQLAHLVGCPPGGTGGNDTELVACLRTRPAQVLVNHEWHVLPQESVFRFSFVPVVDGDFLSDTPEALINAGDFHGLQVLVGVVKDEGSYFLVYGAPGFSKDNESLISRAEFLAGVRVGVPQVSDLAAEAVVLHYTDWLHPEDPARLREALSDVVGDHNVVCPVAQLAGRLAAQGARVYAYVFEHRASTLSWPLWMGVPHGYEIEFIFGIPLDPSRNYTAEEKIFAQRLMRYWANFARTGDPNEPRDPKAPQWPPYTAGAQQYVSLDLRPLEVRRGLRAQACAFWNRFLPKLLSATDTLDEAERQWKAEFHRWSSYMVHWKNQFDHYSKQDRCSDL

Measured: AC50
Note: assay procedure not described here.

NC(=O)NCCC[C@H](N)C(=O)O [L-CITRULLINE]
> 30 µM: [1] | [2] | [3] | [4] | [5] | [6] | [7] | [8] | [9] | [10] | [11]

CC(=O)O[C@H]1C[C@H](O[C@H]2[C@@H](O)C[C@H](O[C@H]3[C@@H](O)C[C@H](O[C@H]4CC[C@@]5(C)[C@H](CC[C@@H]6[C@@H]5C[C@@H](O)[C@]5(C)[C@@H](C7=CC(=O)OC7)CC[C@]65O)C4)O[C@@H]3C)O[C@@H]2C)O[C@H](C)[C@H]1O[C@@H]1O[C@H](CO)[C@@H](O)[C@H](O)[C@H]1O [LANATOSIDE C]
> 30 µM: [1] | [2] | [3] | [4] | [5] | [6] | [7] | [8] | [9] | [10] | [11]

Nc1nc(N)nc(Nc2ccc([As]3SCC(CO)S3)cc2)n1 (configuration not stated) [MELARSOPROL]
> 30 µM: [1] | [2] | [4] | [5] | [6] | [7] | [8] | [9] | [10] | [11]
23.5 µM: [3]

CO[C@H]1[C@@H](O)C[C@H](O[C@H]2[C@@H](O)C[C@H](O[C@H]3[C@@H](O)C[C@H](O[C@H]4CC[C@@]5(C)[C@H](CC[C@@H]6[C@@H]5C[C@@H](O)[C@]5(C)[C@@H](C7=CC(=O)OC7)CC[C@]65O)C4)O[C@@H]3C)O[C@@H]2C)O[C@@H]1C [METILDIGOXIN]
> 30 µM: [1] | [2] | [3] | [4] | [5] | [6] | [7] | [8] | [9] | [10] | [11]

CC1(C)S[C@@H]2[C@H](NC(=O)[C@H](NC(=O)N3CCN(S(C)(=O)=O)C3=O)c3ccccc3)C(=O)N2[C@H]1C(=O)O [MEZLOCILLIN]
> 30 µM: [1] | [2] | [3] | [4] | [5] | [6] | [7] | [8] | [9] | [10] | [11]

CCOC(=O)[C@H](CCc1ccccc1)N[C@@H](C)C(=O)N1Cc2cc(OC)c(OC)cc2C[C@H]1C(=O)O [MOEXIPRIL]
> 30 µM: [1] | [2] | [3] | [4] | [5] | [6] | [8] | [9] | [10] | [11]
25.4 µM: [7]

CC(c1ccc(Cl)c(Cl)c1)N1N=C(N)CC1=O (configuration not stated) [MUZOLIMINE]
> 30 µM: [1] | [2] | [4] | [5] | [6] | [7] | [8] | [9] | [10] | [11]
13.3 µM: [3]
